Counter-ions that a name gives are not always drawn.
Row | melting point | SMILES
1 | > 300 °C | COc1cc(Cc2cnc(NCCO)nc2N)c(C(C)C)cc1OC (as salt: HCl)
2 | 111.4 to 116.9 °C | COc1cc(C(C)C)c(Oc2cnc(N[C@H](C)CO)nc2N)cc1Cl (as salt: hydrochloride)
3 | 135 to 138.5 °C | COc1cc(C(C)C)c(Oc2cnc(N)nc2N)cc1Cl (as salt: trifluoroacetic acid salt)
4 | 63.5 to 69.4 °C | CNC(=O)OC[C@@H](C)Nc1ncc(Oc2cc(Cl)c(OC)cc2C(C)C)c(N)n1 (stereo in doubt)

From patent US8524725B2, “Methods of using diaminopyrimidine as P2X3 and P2X⅔ receptor modulators for treatment of respiratory and gastrointestinal diseases” (Roche Palo Alto LLC, priority 2005, dated 2013)
